What was measured:
Format in all cases: functional, Homo sapiens
TERT-RPE1 = test: (§1) Here: values are normalized to the negative (DMSO; defined as 0% autophagy induction) and positive (250nM Torin1; mTOR inhibitor; defined as maximal inducer of autophagy = 100%) control compounds and represented as % of autophagy induction. […] The impact of autophagy induction on cells is complex and depends on the affected target. As such, the magnitude of a phenotype may not be equally mirrored in the %-value of autophagy induction and vice versa. The dynamics of the induction may indicate the mode of activation: e.g. activation via phosphorylation or a signaling cascade may occur fast, while activation via transcription factors may take considerably longer. […] Of note, treatment concentrations may be sub-optimal for specific compounds, leading to false negative annotations.; details: Culturing Media DMEM/F12 (1:1), 1 % Penicillin/Streptomycin, 10% Fetal bovin serum Add-On: No, Screening Media Control DMEM/F12 (1:1), Screening Media Samples DMEM/F12 (1:1)
U2OS [1] = test: as §1; details: Culturing Media DMEM, 1 % Penicillin/Streptomycin, 10% Fetal bovin serum Add-On: No, Screening Media Control DMEM, Screening Media Samples DMEM
U2OS [2] = test: as §1; details: Culturing Media DMEM, 1 % Penicillin/Streptomycin, 10% Fetal bovin serum Add-On: No, Screening Media Control DMEM, Screening Media Samples DMEM; remark: listed apart in the source
[3] = Compound Concentration 0.5 uM, Timepoint 12 hours
[4] = Compound Concentration 0.5 uM, Timepoint 24 hours
[5] = Compound Concentration 0.5 uM, Timepoint 36 hours
[6] = Compound Concentration 0.5 uM, Timepoint 60 hours
[7] = Compound Concentration 2 uM, Timepoint 12 hours
[8] = Compound Concentration 2 uM, Timepoint 24 hours
[9] = Compound Concentration 2 uM, Timepoint 36 hours
[10] = Compound Concentration 2 uM, Timepoint 60 hours
[11] = Compound Concentration 10 uM, Timepoint 12 hours
[12] = Compound Concentration 10 uM, Timepoint 24 hours
[13] = Compound Concentration 10 uM, Timepoint 36 hours
[14] = Compound Concentration 10 uM, Timepoint 60 hours

SMILES | autophagy induction (TERT-RPE1; [3]) [%] | autophagy induction (TERT-RPE1; [4]) [%] | autophagy induction (TERT-RPE1; [5]) [%] | autophagy induction (TERT-RPE1; [6]) [%] | autophagy induction (TERT-RPE1; [7]) [%] | autophagy induction (TERT-RPE1; [8]) [%] | autophagy induction (TERT-RPE1; [9]) [%] | autophagy induction (TERT-RPE1; [10]) [%] | autophagy induction (TERT-RPE1; [11]) [%] | autophagy induction (TERT-RPE1; [12]) [%] | autophagy induction (TERT-RPE1; [13]) [%] | autophagy induction (TERT-RPE1; [14]) [%] | autophagy induction (U2OS [1]; [3]) [%] | autophagy induction (U2OS [1]; [4]) [%] | autophagy induction (U2OS [1]; [5]) [%] | autophagy induction (U2OS [1]; [6]) [%] | autophagy induction (U2OS [1]; [7]) [%] | autophagy induction (U2OS [1]; [8]) [%] | autophagy induction (U2OS [1]; [9]) [%] | autophagy induction (U2OS [1]; [10]) [%] | other results
CN(C)S(=O)(=O)c1ccc(NC(=S)N2CCC(C(O)(c3ccccc3)c3ccccc3)CC2)cc1 | -8.089 | -8.809 | -7.846 | -8.279 | -6.98 | -8.186 | -8.002 | -9.897 | -4.6942 | -5.029 | -1.466 | -2.059 | -3.164 | 1.478 | 0.3125 | 1.161 | -4.133 | -2.924 | -1.588 | -1.351 | autophagy induction (U2OS [1]; [11]): -4.693%; autophagy induction (U2OS [1]; [12]): -0.2636%; autophagy induction (U2OS [1]; [13]): 0.0362%; autophagy induction (U2OS [1]; [14]): -2.232%; autophagy induction (U2OS [2]; [3]): 4.873%; autophagy induction (U2OS [2]; [4]): 8.285%; autophagy induction (U2OS [2]; [5]): -1.545%; autophagy induction (U2OS [2]; [6]): -6.741%; autophagy induction (U2OS [2]; [7]): -9.723%; autophagy induction (U2OS [2]; [8]): -10.0932%; autophagy induction (U2OS [2]; [9]): -2.641%; autophagy induction (U2OS [2]; [10]): -5.443%; autophagy induction (U2OS [2]; [11]): -2.358%; autophagy induction (U2OS [2]; [12]): -3.276%; autophagy induction (U2OS [2]; [13]): -0.5558%; autophagy induction (U2OS [2]; [14]): -1.95%
CC(C)NC(=O)c1ccc(C#Cc2ccncc2)cn1 | -8.654 | -9.257 | -14.0532 | -16.4507 | -4.036 | -5.1239 | -6.815 | -8.286 | 1.565 | 2.778 | 9.008 | 16.9694 | -9.113 | -5.012 | -3.818 | -1.861 | -10.7877 | -3.358 | -2.622 | -1.746 | autophagy induction (U2OS [1]; [11]): -0.7026%; autophagy induction (U2OS [1]; [12]): -0.9948%; autophagy induction (U2OS [1]; [13]): -1.134%; autophagy induction (U2OS [1]; [14]): -0.8185%; autophagy induction (U2OS [2]; [3]): 0.5322%; autophagy induction (U2OS [2]; [4]): 0.2252%; autophagy induction (U2OS [2]; [5]): -0.5555%; autophagy induction (U2OS [2]; [6]): 0.1744%; autophagy induction (U2OS [2]; [7]): 1.689%; autophagy induction (U2OS [2]; [8]): 1.76%; autophagy induction (U2OS [2]; [9]): 0.3174%; autophagy induction (U2OS [2]; [10]): -4.895%; autophagy induction (U2OS [2]; [11]): -23.095%; autophagy induction (U2OS [2]; [12]): -7.509%; autophagy induction (U2OS [2]; [13]): -0.1897%; autophagy induction (U2OS [2]; [14]): 10.5553%
C/C(=N\NC(=O)[C@@H]1C(=O)NC[C@H]1c1ccccc1)c1cccc(Br)c1 | 3.657 | -1.179 | -5.656 | -7.294 | -6.467 | -9.581 | -11.1295 | -14.064 | -5.576 | -6.043 | -7.363 | -9.435 | -3.442 | 0.5164 | 1.385 | -0.9425 | -6.368 | -5.034 | -3.37 | -2.754 | autophagy induction (U2OS [1]; [11]): -1.379%; autophagy induction (U2OS [1]; [12]): -1.755%; autophagy induction (U2OS [1]; [13]): -0.957%; autophagy induction (U2OS [1]; [14]): -1.418%; autophagy induction (U2OS [2]; [3]): 9.666%; autophagy induction (U2OS [2]; [4]): 0.07709%; autophagy induction (U2OS [2]; [5]): 4.021%; autophagy induction (U2OS [2]; [6]): -3.426%; autophagy induction (U2OS [2]; [7]): -4.579%; autophagy induction (U2OS [2]; [8]): -6.454%; autophagy induction (U2OS [2]; [9]): -2.749%; autophagy induction (U2OS [2]; [10]): -11.0743%; autophagy induction (U2OS [2]; [11]): -8.587%; autophagy induction (U2OS [2]; [12]): 1.184%; autophagy induction (U2OS [2]; [13]): -3.458%; autophagy induction (U2OS [2]; [14]): -5.559%
